Experimental data taken from PubChem BioAssay (NCI).
“And” between values parts separate entries of the source, which are not always exact repeats. Equal values may be shown once.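 Grown in 96-well plates, cells were treated for 48 hours with each compound at five concentrations. Insufficient inhibition: endpoint recorded as highest concentration tested. The concentration for 50% growth inhibition is given as GI50. TGI marks complete inhibition of growth.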

Assays:
Assay in all cases: growth of human tumour cells (NCI), 48 h
HT29 colon = system: HT29 colon
OVCAR-8 ovarian = system: OVCAR-8 ovarian
SK-MEL-28 melanoma = system: SK-MEL-28 melanoma
OVCAR-4 ovarian = system: OVCAR-4 ovarian
786-0 renal = system: 786-0 renal
NCI-H23 lung = system: NCI-H23 lung
KM12 colon = system: KM12 colon
TK-10 renal = system: TK-10 renal
CCRF-CEM leukemia = system: CCRF-CEM leukemia
UACC-62 melanoma = system: UACC-62 melanoma

Compound	GI50 (HT29 colon)	TGI (HT29 colon)	GI50 (OVCAR-8 ovarian)	TGI (OVCAR-8 ovarian)	GI50 (SK-MEL-28 melanoma)	TGI (SK-MEL-28 melanoma)	GI50 (OVCAR-4 ovarian)	TGI (OVCAR-4 ovarian)	GI50 (786-0 renal)	TGI (786-0 renal)	GI50 (NCI-H23 lung)	TGI (NCI-H23 lung)	GI50 (KM12 colon)	TGI (KM12 colon)	GI50 (TK-10 renal)	TGI (TK-10 renal)	GI50 (CCRF-CEM leukemia)	TGI (CCRF-CEM leukemia)	GI50 (UACC-62 melanoma)	TGI (UACC-62 melanoma)
Cc1cnc(C(=O)Nc2nc3ccc(S(=O)(=O)Nc4ccc(C(C)(C)C)cc4)cc3[nH]2)cn1	0.388 µM	4.23 µM	1.26 µM	17.2 µM	1.17 µM	14 µM	1.46 µM	17.3 µM	0.552 µM	13.7 µM	0.606 µM	12.7 µM	0.349 µM	11 µM	2.53 µM	15.2 µM	0.415 µM	14.5 µM	0.537 µM	13 µM
O=C1OC(c2ccccc2)=N/C1=C\c1ccccc1	> 100 µM and 32.8 µM	> 100 µM		> 100 µM and 73.1 µM		> 100 µM		> 100 µM	44.6 µM and > 100 µM	> 100 µM		> 100 µM		> 100 µM and 62.2 µM		> 100 µM		74.4 µM and 87.5 µM		> 100 µM
N#Cc1cnn(C(=O)c2nn(-c3ccc(Cl)cc3)cc2O)c1N	1 µM	14.3 µM	0.474 µM	> 44.4 µM	0.63 µM	27.3 µM	0.456 µM	37.4 µM	0.658 µM	16.3 µM	0.371 µM	15.1 µM	0.374 µM	22.2 µM	0.267 µM	7.34 µM	0.279 µM	4.03 µM	0.303 µM	2.22 µM
O=C1c2ccc3c4c(ccc(c24)C(=O)N1CCCCO)C(=O)N(CCCCO)C3=O	0.824 µM	14.3 µM	1.33 µM	8.45 µM	2.6 µM	10.4 µM	0.428 µM	1.72 µM	2.91 µM	20.5 µM	1.6 µM	5.17 µM	2.27 µM	10.7 µM	5.29 µM	32.5 µM	2.74 µM	> 100 µM	0.726 µM	2.28 µM
COc1ccc2c(c1O)[C@@]13CCCC=C1[C@@H](C2)N(C)CC3		> 100 µM		> 100 µM		> 100 µM		> 100 µM		> 100 µM		> 100 µM		> 100 µM		> 100 µM		> 100 µM		> 100 µM
COc1cc(C(=O)/C=C/c2c[nH]c3ccccc23)cc(OC)c1OC	< 0.0146 µM	0.343 µM	0.037 µM	15.6 µM	0.494 µM	41.9 µM	0.684 µM	43.1 µM	< 0.0223 µM	> 33.9 µM	0.0602 µM	45.4 µM	0.0217 µM	11.2 µM	0.188 µM	9.56 µM	0.0254 µM	14 µM	< 0.01 µM	15.7 µM
COc1cccc(NC(=O)/C(CS(=O)(=O)CCC(C(C)=O)C(C)=O)=N\NC(C)(C)C)c1		> 100 µM		> 100 µM		> 100 µM		> 100 µM		> 100 µM		> 100 µM		> 100 µM		> 100 µM		> 100 µM		> 100 µM
CC(=O)O[C@H]1CSC[C@@H](OC(C)=O)C1[N+](=O)[O-] (some centres not stated)		> 100 µM		> 100 µM		69.4 µM		> 100 µM		36.5 µM		> 100 µM		> 100 µM		> 100 µM		44.4 µM		> 100 µM
OC[C@H]1C[C@](O)(c2ccccc2Cl)[C@@H](c2ccccc2Cl)O1	17.2 µM	42.1 µM	26.4 µM	86.6 µM	26.4 µM	79.6 µM	24.3 µM	99.2 µM	26.1 µM	68.5 µM	25.9 µM	74.2 µM	25.4 µM	64.8 µM	20.9 µM	64.7 µM	27.8 µM	> 100 µM	16.5 µM	33.6 µM
O=C(/C=C/c1ccco1)Nc1ncc(Cc2cc(Cl)ccc2Cl)s1	0.038 µM	> 100 µM	0.12 µM	> 100 µM	2.13 µM	> 100 µM	1.03 µM	> 100 µM	0.0699 µM	> 100 µM	0.156 µM	> 100 µM	0.0419 µM	> 100 µM	6.88 µM	> 100 µM	0.0385 µM	> 100 µM	0.0487 µM	> 100 µM
O=C(O)CN(CCN(CC(=O)O)CC(=O)O)CC(=O)O.[Cu+2].[Na+]	> 100 µM	> 100 µM	> 100 µM	> 100 µM	> 100 µM	> 100 µM	> 100 µM	> 100 µM	> 100 µM	> 100 µM	> 100 µM	> 100 µM	> 100 µM	> 100 µM	> 100 µM	> 100 µM	> 100 µM	> 100 µM	> 100 µM	> 100 µM
N#Cc1ccc2c(-c3ccnc(NC4CC4)n3)c(-c3ccc(F)cc3)nn2c1	> 25 µM	> 25 µM	> 25 µM	> 25 µM	> 25 µM	> 25 µM	> 25 µM	> 25 µM	> 25 µM	> 25 µM	> 25 µM	> 25 µM	> 25 µM	> 25 µM	> 25 µM	> 25 µM	> 25 µM	> 25 µM	> 25 µM	> 25 µM
COC(=O)CC(=O)OC1C[C@@H]2CCC3C(C)(C)CCC[C@]3(C)C23CC[C@@]1(C)C3 (some centres not stated)		35.1 µM		36.8 µM		38.8 µM		32.5 µM		29.9 µM		33.5 µM		33.9 µM		34.3 µM		> 100 µM		30.7 µM
CCOC(=O)c1c(CN2CCCCC2)nc2ccc(Cl)cc2c1-c1ccccc1	18.8 µM	54.2 µM	35.4 µM	> 100 µM	30.4 µM	88.3 µM	37.7 µM	> 100 µM	19.2 µM	41.8 µM	24.2 µM	64.1 µM	27.4 µM	78.3 µM	42.7 µM	> 100 µM	7.6 µM	36.6 µM	17.2 µM	38.1 µM
CN(C(=O)C12C3C4C1C1C2C3C41C#N)C(C)(C)C (configuration not stated)		> 100 µM		> 100 µM		> 100 µM		> 100 µM		> 100 µM		> 100 µM		> 100 µM		> 100 µM		> 100 µM		> 100 µM
O=C1N(c2ccc(Cl)cc2)C(=O)C2(SC=NN2Cc2ccccc2)N1c1ccc(Cl)cc1 (configuration not stated)		> 100 µM		> 100 µM		> 100 µM		> 100 µM		> 100 µM		> 100 µM		> 100 µM		> 100 µM		> 100 µM		> 100 µM
